Key:
[1] = tested on: STAT3-dependent tumor-promoting genes; assay: cDNA-based gene array of 66 STAT3-dependent genes in MDA-MB-468 cells; format: cell-based, human; details: 10 nM doses, EGF-stimulated MDA-MB-468
Protocol: FIG. 10 illustrates an embodiment of the present invention and illustrates SIM-1 and SIM-2 inhibit expressions of IL6, RANTES, and other STAT3-dependent tumor promoting genes and proteins. (A) A gene array of STAT3 dependent 66 genes (listed in Table 1) was performed in mRNA samples of MDA-MB-468 cells. Realtime PCR plate coated with 66 primer sets of STAT3-dependent genes was run for four conditions including control, EGF (25 ng/mL), EGF+SIM-1 (10 nM) and EGF+SIM-2 (10 nM). The resultant Ct value was normalized with four different housekeeping genes, and then summarized with a heatmap analyses drawn in Morpheus server of Broad Institute. […] (C) The cloning of STAT3 response element of IL6 promoter upstream of GFP reporter was performed by GeneCopoea genome editing service (Rockville, MD). The bit score map and sequence of consensus STAT3 response element or SEQ ID NO: 2 was shown below. […] After that live cells were recorded at Ex:Em=485/535 nm wavelength for GFP activity. […] (G) The GFP reporter activity was measured where the scrambled gene was cloned upstream of eGFP reporter. […]
Gene array. […] After that, mRNA was isolated using the Gene Jet RNA purification kit (Cat. #K0732), quantified by Bio-Rad Smart Spec™ plus spectrophotometer, converted to cDNA by GoScript™ CDNA synthesis kit, as per the manufacturer's instructions. […]

[2] = tested on: RANTES; assay: RANTES real-time PCR and ELISA in MDA-MB-468 cells; format: cell-based, human; details: 20 nM; for gene expression of RANTES (real-time PCR): 5 hrs post-treatment; for protein expression of RANTES (ELISA): 48 hrs post treatment
Protocol: FIG. 10 illustrates an embodiment of the present invention and illustrates SIM-1 and SIM-2 inhibit expressions of IL6, RANTES, and other STAT3-dependent tumor promoting genes and proteins. (A) A gene array of STAT3 dependent 66 genes (listed in Table 1) was performed in mRNA samples of MDA-MB-468 cells. Realtime PCR plate coated with 66 primer sets of STAT3-dependent genes was run for four conditions including control, EGF (25 ng/mL), EGF+SIM-1 (10 nM) and EGF+SIM-2 (10 nM). The resultant Ct value was normalized with four different housekeeping genes, and then summarized with a heatmap analyses drawn in Morpheus server of Broad Institute. […] (C) The cloning of STAT3 response element of IL6 promoter upstream of GFP reporter was performed by GeneCopoea genome editing service (Rockville, MD). The bit score map and sequence of consensus STAT3 response element or SEQ ID NO: 2 was shown below. EGFP reporter assay was performed in EGF-induced (20 ng/mL) MDA-MB-468 after treatments of increasing doses of (D) SIM-1 and (E) SIM-2 for 5 hrs. Briefly, MDA-MB-468 cells were transfected with the plasmid for 24 hrs using Lipofectamine transfection strategy followed by the treatment with EGF (20 ng/mL) alone and together with increasing doses SIM-1 and SIM-2 for additional 5 hrs. After that live cells were recorded at Ex:Em=485/535 nm wavelength for GFP activity. (F) The scrambled STAT3 response element in IL6 promoter or SEQ ID NO: 3 was also synthesized partnering with GeneCopoea. One-way ANOVA (treatment as effector) was adopted to test the significance between groups at **p<0.01, #p<0.005, and *p<0.05. (G) The GFP reporter activity was measured where the scrambled gene was cloned upstream of eGFP reporter. Results are mean±SD of three different experiments Ns=no significance. (H) Realtime PCR analyses of IL6 was performed in MDA-MB-468 cells maintained under control, EGF (25 ng/mL), EGF+SIM-1(20 nM), and EGF+SIM-2 (20 nM) conditions for 5 hrs. (I) ELISA analysis of IL6 was performed after 48 hrs in MDA-MB-468 cells kept under similar treatment conditions. (J) Realtime PCR (5 hrs post-treatment) and (K) ELISA analyses of RANTES (48 hrs post treatment) were performed under similar condition. Results are mean±SD of three different experiments. One-way ANOVA (treatment as effector) was adopted to test the significance between groups at ***p<0.001, **p<0.01, and *p<0.05.
ELISA assay. IL6 (BD OptEIA™; Cat #555220) and RANTES (Thermo; Cat #EHRNTS) ELISA was performed as per manufacturer's protocol. […]
Once the transcriptional regulation of STAT3-dependent genes was confirmed, the quantification of IL6 was performed. […]

Row | Structure (SMILES) | expressions of tumor-promoting factors, inflammatory cytokine, metastatic and anti-apoptotic genes (AKT, IL6, RANTES, MMPs, Cyclin D1, Bcl-2 etc.) [1] | gene expression of RANTES (real-time PCR) [2] | protein expression of RANTES (ELISA) [2]
1 | CCOC(=O)c1c(NC(C)=O)sc2c(Cl)c(/C=N/O)ccc12 [SIM-2, ethyl 2-acetamido-7-chloro-6-(hydroxyiminomethyl)-1-benzothiophene-3-carboxylate] | strongly attenuated | significantly downregulated | significantly downregulated
2 | O=C(O)CCC(=O)NCc1csc2ccc(Cl)cc12 [SIM-1, 4-[(5-chloro-1-benzothiophen-3-yl)methylamino]-4-oxobutanoic acid] | strongly attenuated | significantly downregulated | significantly downregulated

— US20250255847A1, “[…]s: Novel Drugs for Triple Negative Breast Cancer” (SIMMARON RSEARCH INC, priority 2024, published 2025)
